Counter-ions that a name gives are not always drawn. *1 amine or outer side, *2 acyl side, *3 side chain or, on linkers, in order; H or OH if unused. Where a SMILES comes first, the peptide text is derived from it. Bridges are numbered along the chain shown (N, C = ends). Roman numbers before positions name the chains, in order. [ ]: non-standard residue; d: D form. Actinocin(9to1) = Cc1c2oc3c(C)ccc(C(=O)[*:1])c3nc-2c(C(=O)[*:2])c(N)c1=O; NMeV = CN[C@H](C(=O)O)C(C)C; Sar = CNCC(=O)O
Test system: hDMFa myofibroblast cells

In the case of `O=C(O)/C=C/c1ccc(O)c(O)c1` [Cmpd 200, Caffeic acid], the “Compound Myofibroblast Cytotoxicity Activity” value is reported as “+”.
For `CNCCc1ccccn1.CS(=O)(=O)O.CS(=O)(=O)O` [Cmpd 175, Betahistine mesylate], the “Compound Myofibroblast Cytotoxicity Activity” value was “++”.
For `Oc1cccc2cccnc12` [Cmpd 74, 8-Hydroxyquinoline], the “Compound Myofibroblast Cytotoxicity Activity” value was “++”.
In the case of `CN(C)CCCN1c2ccccc2CCc2ccccc21` [Cmpd 523, Imipramine (hydrochloride)], the “Compound Myofibroblast Cytotoxicity Activity” value is reported as “+++”.
With `Cc1c2oc3c(C)ccc(C(=O)N[C@@H]4C(=O)N[C@H](C(C)C)C(=O)N5CCC[C@H]5C(=O)N(C)CC(=O)N(C)[C@@H](C(C)C)C(=O)O[C@@H]4C)c3nc-2c(C(=O)N[C@@H]2C(=O)N[C@H](C(C)C)C(=O)N3CCC[C@H]3C(=O)N(C)CC(=O)N(C)[C@@H](C(C)C)C(=O)O[C@@H]2C)c(N)c1=O` [Cmpd 86, Actinomycin D] (I: T[dV]P[Sar][NMeV] / II: T[dV]P[Sar][NMeV]; ester I:1-I:C, II:1-II:C; linker I:N-II:N via Actinocin(9to1)) the “Compound Myofibroblast Cytotoxicity Activity” value was “++”.
`Cc1c(C)c2c(c(C)c1O)CCC(C)(COc1ccc(CC3SC(=O)NC3=O)cc1)O2` (stereo not drawn) [Cmpd 976, Troglitazone] was tested, and the “Compound Myofibroblast Cytotoxicity Activity” value was “+++”.
`Cc1cccc(O)c1` [Cmpd 636, m-Cresol] was tested, and the “Compound Myofibroblast Cytotoxicity Activity” value was “++”.
With `CCc1c(Cl)c(O)c(Cl)c(O)c1C(=O)O[C@H]1[C@H](O)[C@H](OC)[C@H](OC/C2=C\C=C\C[C@H](O)/C(C)=C/[C@H](CC)[C@@H](O[C@@H]3OC(C)(C)[C@@H](OC(=O)C(C)C)[C@H](O)[C@@H]3O)/C(C)=C/C(C)=C/C[C@@H]([C@@H](C)O)OC2=O)O[C@@H]1C` [Cmpd 454, Fidaxomicin] the “Compound Myofibroblast Cytotoxicity Activity” value was “+++++”.
For `O=S(=O)([O-])c1cc(O)ccc1O.O=S(=O)([O-])c1cc(O)ccc1O.[Ca+2]` [Cmpd 205, Calcium dobesilate], the “Compound Myofibroblast Cytotoxicity Activity” value was “++”.
With `NC(=O)c1cn(Cc2c(F)cccc2F)nn1` [Cmpd 843, Rufinamide] the “Compound Myofibroblast Cytotoxicity Activity” value was “+++”.
With `NCc1ccc(C(=O)O)cc1` [Cmpd 56] the “Compound Myofibroblast Cytotoxicity Activity” value was “++”.
In the case of `O=C1NC(=O)C(c2ccccc2)(c2ccccc2)N1` [Cmpd 778, Phenytoin sodium], the “Compound Myofibroblast Cytotoxicity Activity” value is reported as “++”.
With `O=NN(CCCl)C(=O)NCCCl` [Cmpd 218, Carmustine] the “Compound Myofibroblast Cytotoxicity Activity” value was “++”.
In the case of `COS(=O)(=O)[O-].C[n+]1c2ccccc2nc2ccccc21` [Cmpd 775, Phenazine methosulfate], the “Compound Myofibroblast Cytotoxicity Activity” value is reported as “+++++”.
With `CSCC[C@H](N)C(=O)O` [Cmpd 600, L-Methionine] the “Compound Myofibroblast Cytotoxicity Activity” value was “++++”.
With `C[C@@H]1C[C@H]2[C@@H]3CCC4=CC(=O)C=C[C@]4(C)[C@@]3(Cl)[C@@H](O)C[C@]2(C)[C@@]1(OC(=O)c1ccco1)C(=O)CCl` [Cmpd 688, Mometasone furoate] the “Compound Myofibroblast Cytotoxicity Activity” value was “++”.
For `Clc1ccccc1C(c1ccccc1)(c1ccccc1)n1ccnc1` [Cmpd 289, Clotrimazole], the “Compound Myofibroblast Cytotoxicity Activity” value was “+++”.
With `COc1cc2/c(=N/c3ccc(Br)cc3F)nc[nH]c2cc1OCC1CCN(C)CC1` [Cmpd 994, Vandetanib (ZD6474)] the “Compound Myofibroblast Cytotoxicity Activity” value was “++++”.
`CC(=O)OCC[N+](C)(C)C.[I-]` [Cmpd 83, Acetylcholine iodide] was tested, and the “Compound Myofibroblast Cytotoxicity Activity” value was “++”.
`CC(COc1ccccc1)NC(C)C(O)c1ccc(O)cc1` (stereo not drawn) [Cmpd 542, Isoxsuprine (hydrochloride)] was tested, and the “Compound Myofibroblast Cytotoxicity Activity” value was “++”.
With `OCCN1CCN(CCCN2c3ccccc3Sc3ccc(Cl)cc32)CC1` [Cmpd 773, Perphenazine] the “Compound Myofibroblast Cytotoxicity Activity” value was “+++++”.
With `CC1(C)CCC(c2ccc(Cl)cc2)=C(CN2CCN(c3ccc(C(=O)NS(=O)(=O)c4ccc(N[C@H](CCN5CCOCC5)CSc5ccccc5)c(S(=O)(=O)C(F)(F)F)c4)cc3)CC2)C1` [Cmpd 77, ABT-263 (Navitoclax)] the “Compound Myofibroblast Cytotoxicity Activity” value was “+++++”.
In the case of `CC[C@H](C)C(=O)O[C@H]1CCC=C2C=C[C@H](C)[C@H](CC[C@@H]3C[C@@H](O)CC(=O)O3)[C@H]21` [Cmpd 668, Mevastatin], the “Compound Myofibroblast Cytotoxicity Activity” value is reported as “+++”.
In the case of `Cc1cncc(CN2CCC(=C3c4ccc(Cl)cc4CCc4cccnc43)CC2)c1.O=C(O)/C=C/C(=O)O` [Cmpd 844, Rupatadine Fumarate], the “Compound Myofibroblast Cytotoxicity Activity” value is reported as “+++”.
`CC(C)(C)NC(=O)[C@@H]1C[C@@H]2CCCC[C@@H]2CN1C[C@@H](O)[C@H](Cc1ccccc1)NC(=O)[C@H](CC(N)=O)NC(=O)c1ccc2ccccc2n1` [Cmpd 852, Saquinavir mesylate] was tested, and the “Compound Myofibroblast Cytotoxicity Activity” value was “++++”.
`COc1cc(Nc2ncc(F)c(Nc3ccc4c(n3)N(COP(=O)([O-])[O-])C(=O)C(C)(C)O4)n2)cc(OC)c1OC.[Na+].[Na+]` [Cmpd 816, R788 disodium] was tested, and the “Compound Myofibroblast Cytotoxicity Activity” value was “++”.
In the case of `CC=Cc1ccc(O)c(OC)c1` [Cmpd 536, Isoeugenol], the “Compound Myofibroblast Cytotoxicity Activity” value is reported as “++”.
In the case of `Nc1ccc(S(=O)(=O)NC(=O)c2ccccc2)cc1` [Cmpd 893, Sulfabenzamide], the “Compound Myofibroblast Cytotoxicity Activity” value is reported as “++”.
`CC(C)[C@H](N)C(=O)O` [Cmpd 618, L-Valine] was tested, and the “Compound Myofibroblast Cytotoxicity Activity” value was “++”.
`CC(C)NCC(O)c1ccc(O)c(O)c1` (stereo not drawn) [Cmpd 539, Isoproterenol sulfate dihydrate] was tested, and the “Compound Myofibroblast Cytotoxicity Activity” value was “++”.
For `Cl.N[C@@H]1C[C@H]1c1ccccc1` [Cmpd 964, Tranylcypromine hydrochloride], the “Compound Myofibroblast Cytotoxicity Activity” value was “++++”.
`CC(=O)O[C@H]1CC[C@@]2(C)C(=CC[C@@H]3[C@@H]2CC[C@]2(C)C(c4cccnc4)=CC[C@@H]32)C1` [Cmpd 75, Abiraterone acetate] was tested, and the “Compound Myofibroblast Cytotoxicity Activity” value was “+++”.
In the case of `CCN(CC)C(=O)C1(c2ccccc2)CC1CN` (stereo not drawn) [Cmpd 676, Milnacipran HCl], the “Compound Myofibroblast Cytotoxicity Activity” value is reported as “++++”.
For `C[C@H]1O[C@@H](O[C@H]2CC[C@@]3(C)[C@@H](CC[C@]4(C)[C@@H]3C=C[C@]35OC[C@@]6(CCC(C)(C)C[C@H]63)[C@@H](O)C[C@]54C)[C@]2(C)CO)[C@H](O)[C@@H](O[C@@H]2O[C@H](CO)[C@@H](O)[C@H](O)[C@H]2O)[C@H]1O` [Cmpd 846, Saikosaponin A], the “Compound Myofibroblast Cytotoxicity Activity” value was “+++++”.
For `CS(C)(=O)=O` [Cmpd 660, Methyl Sulfonyl Methane (MSM)], the “Compound Myofibroblast Cytotoxicity Activity” value was “+”.
For `COC(=O)Nc1nc2ccc(C(=O)c3ccccc3)cc2[nH]1` [Cmpd 637, Mebendazole], the “Compound Myofibroblast Cytotoxicity Activity” value was “++++”.
For `CSCCC(N)C(=O)O` (racemic) [Cmpd 369, DL-Methionine], the “Compound Myofibroblast Cytotoxicity Activity” value was “++”.
For `CC(C)c1c(C(=O)Nc2ccccc2)c(-c2ccccc2)c(-c2ccc(F)cc2)n1CC[C@@H](O)C[C@@H](O)CC(=O)[O-].CC(C)c1c(C(=O)Nc2ccccc2)c(-c2ccccc2)c(-c2ccc(F)cc2)n1CC[C@@H](O)C[C@@H](O)CC(=O)[O-].[Ca+2]` [Cmpd 140, Atorvastatin Calcium], the “Compound Myofibroblast Cytotoxicity Activity” value was “++++”.
`CC1=C(C/C=C(\C)CCC[C@H](C)CCC[C@H](C)CCCC(C)C)C(=O)c2ccccc2C1=O` [Cmpd 1010, Vitamin K1] was tested, and the “Compound Myofibroblast Cytotoxicity Activity” value was “++”.
In the case of `O=C(c1ccccc1)c1ccccc1` [Cmpd 168, Benzophenone], the “Compound Myofibroblast Cytotoxicity Activity” value is reported as “++”.
`CC(C)(O)c1ccccc1CC[C@@H](SCC1(CC(=O)O)CC1)c1cccc(/C=C/c2ccc3ccc(Cl)cc3n2)c1` [Cmpd 689, Montelukast Sodium] was tested, and the “Compound Myofibroblast Cytotoxicity Activity” value was “+++++”.
For `CCCCC(=O)O[C@]1(C(=O)CO)[C@@H](C)C[C@H]2[C@@H]3CCC4=CC(=O)C=C[C@]4(C)[C@@]3(F)[C@@H](O)C[C@@]21C` [Cmpd 176, Betamethasone Valerate], the “Compound Myofibroblast Cytotoxicity Activity” value was “++”.
In the case of `Clc1ccc(C(c2ccccc2Cl)C(Cl)Cl)cc1` (stereo not drawn) [Cmpd 681, Mitotane (Lsodren)], the “Compound Myofibroblast Cytotoxicity Activity” value is reported as “+++”.
`CCCCCCCCCCCCCCCCOP(=O)([O-])OCC[N+](C)(C)C` [Cmpd 677, Miltefosine] was tested, and the “Compound Myofibroblast Cytotoxicity Activity” value was “+++++”.
With `CCOc1cc(CC(=O)N[C@@H](CC(C)C)c2ccccc2N2CCCCC2)ccc1C(=O)O` [Cmpd 826, Repaglinide] the “Compound Myofibroblast Cytotoxicity Activity” value was “+++”.
With `O[C@H](CS)[C@H](O)CS` (racemic) [Cmpd 368, DL-Dithiothreitol] the “Compound Myofibroblast Cytotoxicity Activity” value was “++++”.
In the case of `Cc1c(OCC(F)(F)F)ccnc1C[S@@+]([O-])c1nc2ccccc2[nH]1` [Cmpd 345, Dexlansoprazole], the “Compound Myofibroblast Cytotoxicity Activity” value is reported as “++”.
For `O=C(c1ccc(F)c(F)c1Nc1ccc(I)cc1F)N1CC(O)([C@@H]2CCCCN2)C1` [Cmpd 290, Cobimetinib], the “Compound Myofibroblast Cytotoxicity Activity” value was “++++”.
For `O=C1O[C@H](CO)[C@@H](O)[C@H](O)[C@H]1O` [Cmpd 338, delta-Gluconolactone], the “Compound Myofibroblast Cytotoxicity Activity” value was “++”.
`CNCCCN1c2ccccc2CCc2ccccc21.Cl` [Cmpd 342, Desipramine hydrochloride] was tested, and the “Compound Myofibroblast Cytotoxicity Activity” value was “++++”.
For `COc1ccc2[n-]c([S+]([O-])Cc3ncc(C)c(OC)c3C)nc2c1.COc1ccc2[n-]c([S+]([O-])Cc3ncc(C)c(OC)c3C)nc2c1.[Mg+2]` (stereo not drawn) [Cmpd 427, Esomeprazole Magnesium], the “Compound Myofibroblast Cytotoxicity Activity” value was “++”.
With `CCOc1nc2cccc(C(=O)OC(C)OC(=O)OC3CCCCC3)c2n1Cc1ccc(-c2ccccc2-c2nnn[nH]2)cc1` (stereo not drawn) [Cmpd 211, Candesartan Cilexetil] the “Compound Myofibroblast Cytotoxicity Activity” value was “+++”.
`O=C(O)Cc1cc(I)c(Oc2ccc(O)c(I)c2)c(I)c1` [Cmpd 949, Tiratricol] was tested, and the “Compound Myofibroblast Cytotoxicity Activity” value was “+++”.
In the case of `CN(Cc1ccc(C(C)(C)C)cc1)Cc1cccc2ccccc12` [Cmpd 197, Butenafine HCl], the “Compound Myofibroblast Cytotoxicity Activity” value is reported as “+++”.

From US20260102359A1, “COMBINATION TREATMENT OF DERMAL AND TRANSDERMAL FIBROTIC DISEASES, DISORDERS AND ASSOCIATED PAIN AND INFLAMMATION” (ERESINA, LLC, priority 2022, published 2026)
